The values below are quoted from earlier work in patent US20110015245A1, “BENDAMUSTINE AMPHIPHILIC CATIONIC COMPOSITIONS” (priority 2009, published 2011).

The conditions of this data set: 23° C.

Counter-ions that a name gives are not always drawn.

Regarding `Cn1c(CCCC(=O)O)nc2cc(N(CCCl)CCCl)ccc21` [bendamustine hydrochloride], the “time stable in saline solution” value is 9 h.
